{"source": "patent US20110039762A1", "about": "“TARGETED ANTIMICROBIAL MOIETIES” (C3 JIAN, INC., priority 2009, published 2011)", "key": {"[1]": {"tested_on": "MRSA", "experiment": "Kill or inhibit growth/proliferation; morphology, biofilm and growth disruption (Tables 5, 6); on all read-outs here: test concentration or dose not given here", "assay_type": "cell-based, Methicillin-resistant Staphylococcus aureus", "set-up": "key: A: Peptide aggregates; B: Less hyphal formation; Clumps; Diffuse clumps and small polyps; F: Diffuse growth; H: Thin; I: Growth inhibition; Microcolony formation; Rippled; Small polyps; Thick; W: Halo formation on top, microlonies on bottom"}, "[2]": {"tested_on": "S. pneumoniae", "experiment": "Kill or inhibit growth/proliferation; morphology, biofilm and growth disruption (Tables 5, 6)", "assay_type": "cell-based, Streptococcus pneumoniae", "set-up": "key: A: Peptide aggregates; B: Less hyphal formation; Clumps; Diffuse clumps and small polyps; F: Diffuse growth; H: Thin; I: Growth inhibition; Microcolony formation; Rippled; Small polyps; Thick; W: Halo formation on top, microlonies on bottom"}, "[3]": {"tested_on": "microorganisms (e.g., bacteria, yeasts, fungi)", "experiment": "Targeting peptide binding to target microorganisms (Table 3)", "settings": "preferably 1x PBS; for Target(s): microorganism(s) the targeting peptide binds, peptide binding conducted in aqueous buffers varied by peptide solubility; for Target(s) (microorganisms bound by the targeting peptide): peptide binding in aqueous buffers varied by peptide solubility"}, "[4]": {"tested_on": "microorganisms", "experiment": "Peptides having multiple activities (targeting/binding, antimicrobial, growth or phenotype altering)", "text": "In certain embodiments, peptides described herein can have multiple activities. Thus for example, a peptide can have both binding/targeting activity and antimicrobial activity. Such peptides can be used, e.g., in a chimeric construct, for any or all of these properties. Thus, for example, a peptide designated “B” in Table 8 can be used as a targeting peptide. If it is also designated G or M it can also be used for antimicrobial activity."}}, "note": "Entries after “also recorded” stand apart in the source; their conditions may differ. Ends that are not written are not given here."}
{"substance": "PF-019 (NDTNK; Peptide with targeting and/or antimicrobial activity)", "values": [{"measurement": "Organism, effect", "setting": "[1]", "value": "MRSA (M)"}]}
{"substance": "PF-424: peptide having multiple activities (IAAFVTSRAFSDTVSPI; Peptide with targeting and/or antimicrobial activity)", "values": [{"measurement": "Organism, effect", "setting": "[2]", "value": "S. pneumoniae (H)"}, {"measurement": "Target(s)", "setting": "[3]", "value": "S. epidermidis and C. albicans and MRSA"}, {"measurement": "Activities", "setting": "[4]", "value": "G B"}]}
{"substance": "PF-428: peptide having multiple activities (ENEESIF; Peptide with targeting and/or antimicrobial activity)", "values": [{"measurement": "Organism, effect", "setting": "[2]", "value": "S. pneumoniae (H)"}, {"measurement": "Target(s)", "setting": "[3]", "value": "S. epidermidis; also recorded: C. albicans; also recorded: E. faecalis; also recorded: C. jeikeium"}, {"measurement": "Activities", "setting": "[4]", "value": "G B"}]}
{"substance": "PF-433: peptide having multiple activities (MRKEFHNVLSSGQLLADKRPARDYNRK; Peptide with targeting and/or antimicrobial activity)", "values": [{"measurement": "Organism, effect", "setting": "[2]", "value": "S. pneumoniae (H)"}, {"measurement": "Target(s)", "setting": "[3]", "value": "S. epidermidis; also recorded: E. coli; also recorded: S. pneumoniae; also recorded: C. jeikeium"}, {"measurement": "Activities", "setting": "[4]", "value": "G B"}]}
{"substance": "PF-434: peptide having multiple activities (GQLLADKRPARDYNRK; Peptide with targeting and/or antimicrobial activity)", "values": [{"measurement": "Organism, effect", "setting": "[2]", "value": "S. pneumoniae (S)"}, {"measurement": "Target(s)", "setting": "[3]", "value": "S. epidermidis; also recorded: M. luteus; also recorded: S. pneumoniae; also recorded: C. jeikeium"}, {"measurement": "Activities", "setting": "[4]", "value": "G B"}]}
{"substance": "PF-445: peptide having multiple activities (chain 1 ASMTKRLKLAMSKV; chain 2 ASMTKRLKLAMSKV; Peptide with targeting and/or antimicrobial activity)", "values": [{"measurement": "Organism, effect", "setting": "[2]", "value": "S. pneumoniae (M)"}, {"measurement": "Target(s)", "setting": "[3]", "value": "M. luteus; also recorded: S. pneumoniae; also recorded: C. jeikeium"}, {"measurement": "Activities", "setting": "[4]", "value": "G B"}]}
{"substance": "PF-446: peptide having multiple activities (chain 1 SGNEKV; chain 2 SGNEKV; Peptide with targeting and/or antimicrobial activity)", "values": [{"measurement": "Organism, effect", "setting": "[2]", "value": "S. pneumoniae (H)"}, {"measurement": "Target(s)", "setting": "[3]", "value": "M. luteus; also recorded: C. jeikeium"}, {"measurement": "Activities", "setting": "[4]", "value": "G B"}]}
{"substance": "PF-457: peptide having multiple activities (chain 1 INKYHHIA; chain 2 INKYHHIA; Peptide with targeting and/or antimicrobial activity)", "values": [{"measurement": "Organism, effect", "setting": "[2]", "value": "S. pneumoniae (M)"}, {"measurement": "Target(s)", "setting": "[3]", "value": "C. albicans; also recorded: S. pneumoniae; also recorded: E. faecalis; also recorded: C. jeikeium"}, {"measurement": "Activities", "setting": "[4]", "value": "G B"}]}
{"substance": "PF-459: peptide having multiple activities (chain 1 EKRMSFNENQSHRPLL; chain 2 EKRMSFNENQSHRPLL; Peptide with targeting and/or antimicrobial activity)", "values": [{"measurement": "Organism, effect", "setting": "[2]", "value": "S. pneumoniae (H)"}, {"measurement": "Target(s)", "setting": "[3]", "value": "P. aeruginosa"}, {"measurement": "Activities", "setting": "[4]", "value": "G B"}]}
{"substance": "PF-462: peptide having multiple activities (chain 1 KNKTDTL; chain 2 KNKTDTL; Peptide with targeting and/or antimicrobial activity)", "values": [{"measurement": "Organism, effect", "setting": "[2]", "value": "S. pneumoniae (H)"}, {"measurement": "Target(s)", "setting": "[3]", "value": "E. faecalis; also recorded: C. jeikeium"}, {"measurement": "Activities", "setting": "[4]", "value": "G B"}]}
{"substance": "PF-464: peptide having multiple activities (chain 1 VDMVNRFLGN; chain 2 VDMVNRFLGN; Peptide with targeting and/or antimicrobial activity)", "values": [{"measurement": "Organism, effect", "setting": "[2]", "value": "S. pneumoniae (S)"}, {"measurement": "Target(s)", "setting": "[3]", "value": "S. epidermidis and C. albicans and MRSA and S. pneumoniae and E. faecalis and C. jeikeium and C. jejuni"}, {"measurement": "Activities", "setting": "[4]", "value": "G B"}]}
{"substance": "PF-466: peptide having multiple activities (chain 1 VRKSDQ; chain 2 VRKSDQ; Peptide with targeting and/or antimicrobial activity)", "values": [{"measurement": "Organism, effect", "setting": "[2]", "value": "S. pneumoniae (H)"}, {"measurement": "Target(s)", "setting": "[3]", "value": "MRSA and C. jeikeium and C. jejuni"}, {"measurement": "Activities", "setting": "[4]", "value": "G B"}]}
{"substance": "PF-467: peptide having multiple activities (chain 1 YYKDYFKEI; chain 2 YYKDYFKEI; Peptide with targeting and/or antimicrobial activity)", "values": [{"measurement": "Organism, effect", "setting": "[2]", "value": "S. pneumoniae (H)"}, {"measurement": "Target(s)", "setting": "[3]", "value": "MRSA and E. faecalis and C. jeikeium and C. jejuni"}, {"measurement": "Activities", "setting": "[4]", "value": "G B"}]}
{"substance": "PF-476: peptide having multiple activities (chain 1 WADAQYKLCENCSE; chain 2 WADAQYKLCENCSE; Peptide with targeting and/or antimicrobial activity)", "values": [{"measurement": "Organism, effect", "setting": "[2]", "value": "S. pneumoniae (H)"}, {"measurement": "Target(s)", "setting": "[3]", "value": "M. luteus; also recorded: P. mirabilis; also recorded: C. albicans; also recorded: S. pneumoniae; also recorded: E. faecalis; also recorded: C. jeikeium; also recorded: C. jejuni"}, {"measurement": "Activities", "setting": "[4]", "value": "G B"}]}
{"substance": "PF-513: peptide having multiple activities (chain 1 SNGVGLGVGIGSGIRF-NH2; chain 2 SNGVGLGVGIGSGIRF-NH2)", "values": [{"measurement": "Organism, effect", "setting": "[2]", "value": "S. pneumoniae (M)"}, {"measurement": "Target(s)", "setting": "[3]", "value": "C. albicans"}, {"measurement": "Activities", "setting": "[4]", "value": "G B"}]}
{"substance": "PF-515: peptide having multiple activities (chain 1 DKSTQDKDIKQAKLLAQELGL-NH2; chain 2 DKSTQDKDIKQAKLLAQELGL-NH2)", "values": [{"measurement": "Organism, effect", "setting": "[2]", "value": "S. pneumoniae (H)"}, {"measurement": "Target(s)", "setting": "[3]", "value": "S. epidermidis; also recorded: C. albicans; also recorded: S. pneumoniae; also recorded: C. jeikeium"}, {"measurement": "Activities", "setting": "[4]", "value": "G B"}]}
{"substance": "PF-517: peptide having multiple activities (chain 1 VKPTMTASLISTVC; chain 2 VKPTMTASLISTVC; Peptide with targeting and/or antimicrobial activity)", "values": [{"measurement": "Organism, effect", "setting": "[2]", "value": "S. pneumoniae (M)"}, {"measurement": "Target(s)", "setting": "[3]", "value": "C. jejuni"}, {"measurement": "Activities", "setting": "[4]", "value": "G B"}]}
{"substance": "PF-542: peptide having multiple activities (chain 1 KKDNPSLNDQDKNAVLNLLALAK; chain 2 KKDNPSLNDQDKNAVLNLLALAK; Peptide with targeting and/or antimicrobial activity)", "values": [{"measurement": "Organism, effect", "setting": "[2]", "value": "S. pneumoniae (H)"}, {"measurement": "Target(s)", "setting": "[3]", "value": "C. jeikeium"}, {"measurement": "Activities", "setting": "[4]", "value": "G B"}]}
{"substance": "PF-573: peptide having multiple activities (chain 1 EKKLIVKLIDSIGKSHEEIVGAG; chain 2 EKKLIVKLIDSIGKSHEEIVGAG; Peptide with targeting and/or antimicrobial activity)", "values": [{"measurement": "Organism, effect", "setting": "[2]", "value": "S. pneumoniae (C)"}, {"measurement": "Target(s)", "setting": "[3]", "value": "S. epidermidis; also recorded: S. pneumoniae"}, {"measurement": "Activities", "setting": "[4]", "value": "G B"}]}
{"substance": "PF-625: peptide having multiple activities (SDSTNNARTRKKARDVTTKDIDK; Peptide with targeting and/or antimicrobial activity)", "values": [{"measurement": "Organism, effect", "setting": "[2]", "value": "S. pneumoniae (H)"}, {"measurement": "Target(s) (microorganisms bound by the targeting peptide)", "setting": "[3]", "value": "S. epidermidis; also recorded: M. luteus; also recorded: S. pneumoniae; also recorded: C. jeikeium"}, {"measurement": "Activities", "setting": "[4]", "value": "G B"}]}
{"substance": "PF-626: peptide having multiple activities (KYDFDDFEPEEA; Peptide with targeting and/or antimicrobial activity)", "values": [{"measurement": "Organism, effect", "setting": "[2]", "value": "S. pneumoniae (H)"}, {"measurement": "Target(s) (microorganisms bound by the targeting peptide)", "setting": "[3]", "value": "S. epidermidis and M. luteus and E. coli and C. albicans and MRSA and S. pneumoniae and E. faecalis and C. jeikeium"}, {"measurement": "Activities", "setting": "[4]", "value": "G B"}]}
{"substance": "PF-656 (chain 1 RGMFVPFHDVDCVQ; chain 2 RGMFVPFHDVDCVQ; Peptide with targeting and/or antimicrobial activity)", "values": [{"measurement": "Organism, effect (morphology, biofilm and growth disruption)", "setting": "[1]", "value": "MRSA (R)"}, {"measurement": "Target(s) (microorganisms bound by the targeting peptide)", "setting": "[3]", "value": "Mycobacteria spp"}]}
{"substance": "PF-737: peptide having multiple activities (KSSGSSASASSTAGGSSSK; Peptide with targeting and/or antimicrobial activity)", "values": [{"measurement": "Organism, effect (morphology, biofilm and growth disruption)", "setting": "[2]", "value": "S. pneumoniae (D)"}, {"measurement": "Target(s) (microorganisms bound by the targeting peptide)", "setting": "[3]", "value": "S. epidermidis; also recorded: S. pneumoniae"}, {"measurement": "Activities", "setting": "[4]", "value": "G B"}]}
{"substance": "PF-744: peptide having multiple activities (LGVGTFVGKVLIKNQQKQKSKKKAQ; Peptide with targeting and/or antimicrobial activity)", "values": [{"measurement": "Organism, effect (morphology, biofilm and growth disruption)", "setting": "[2]", "value": "S. pneumoniae (H)"}, {"measurement": "Target(s) (microorganisms bound by the targeting peptide)", "setting": "[3]", "value": "S. epidermidis and M. luteus and E. coli and MRSA and S. pneumoniae and E. faecalis and C. jeikeium"}, {"measurement": "Activities", "setting": "[4]", "value": "G B"}]}
{"substance": "PF-756: peptide having multiple activities (DALLRLA; Peptide with targeting and/or antimicrobial activity)", "values": [{"measurement": "Organism, effect (morphology, biofilm and growth disruption)", "setting": "[2]", "value": "S. pneumoniae (A)"}, {"measurement": "Target(s) (microorganisms bound by the targeting peptide)", "setting": "[3]", "value": "S. epidermidis and M. luteus and C. albicans and MRSA and C. jeikeium"}, {"measurement": "Activities", "setting": "[4]", "value": "G B"}]}
{"substance": "PF-757: peptide having multiple activities (PQAISSVQQNA; Peptide with targeting and/or antimicrobial activity)", "values": [{"measurement": "Organism, effect (morphology, biofilm and growth disruption)", "setting": "[2]", "value": "S. pneumoniae (H)"}, {"measurement": "Target(s) (microorganisms bound by the targeting peptide)", "setting": "[3]", "value": "M. luteus and C. albicans and MRSA"}, {"measurement": "Activities", "setting": "[4]", "value": "G B"}]}
{"substance": "PF-762: peptide having multiple activities (PAPAPSAPAPAPEQPEQPA; Peptide with targeting and/or antimicrobial activity)", "values": [{"measurement": "Organism, effect (morphology, biofilm and growth disruption)", "setting": "[2]", "value": "S. pneumoniae (H)"}, {"measurement": "Target(s) (microorganisms bound by the targeting peptide)", "setting": "[3]", "value": "M. luteus; also recorded: C. albicans"}, {"measurement": "Activities", "setting": "[4]", "value": "G B"}]}
